Measurements: patent US7186754B2, “Use of creatine or creatine compounds for skin preservation” (Avicena Group, Inc., priority 1999, dated 2007)

Key:
[1] = cited from earlier work
[2] = system: mice, rats and chicks; conditions: fed to mice; cited from earlier work
[3] = system: creatine kinase; conditions: forward reaction, in vitro and in vivo; cited from earlier work
[4] = system: mice; conditions: up to 1% of diet for 2 weeks or over 4 weeks; cited from earlier work
[5] = 1% dietary cyclocreatine; cited from earlier work
[6] = system: chicks; conditions: 1% cyclocreatine in diet, newly hatched chicks, cited from earlier work
[7] = system: striatal tissue after malonate injections; assay: salicylate hydroxyl radical trapping and 3-nitrotyrosine in striatum after intrastriatal malonate injection; type: in vivo; conditions: 1% in diet for two weeks before intrastriatal malonate, FIG. 3
Description: FIG. 3 depicts the production of 2,3 and 2,5 DHBA and 3 nitrotyrosine after intrastriatal injection of malonate in control animals fed with creatine and those fed with cyclocreatine. **p is less than 0.01 compared with uninjected side; #p is less than 0.05 compared with DHBA elevation in controls. Eight animals were used in each group.
The salicylate hydroxyl radical-trapping method was used for measuring levels of hydroxyl radicals in striatal tissue after malonate injections. Eight animals in each group were fed either a normal diet or a diet enriched with 1% creatine or 1% cyclocreatine for two weeks before intrastriatal malonate injections. Animals were injected with 200 mg/kg salicylate intraperitoneally just before the malonate injections and were killed 1 hour later. […] An aliquot of supernatant was analyzed by HPLC with the 16-electrode electrochemical detection (Beal et. al., 1990). Salicylate, 2,3 and 2,5 DHBA, tyrosine, 3-nitrotyrosine were measured electrochemically by oxidation at 840, 240, 120, 600 and 840 mV respectively with retention times of 20.5, 9.4, 6.3, 10.5, 18.2 min respectively. The data were expressed as the ratio of 2,3 and 2,5 DHBA to salicylate to normalize the DHBA concentrations for differing brain concentrations of salicylate. […] 3-Nitrotyrosine and tyrosine concentrations were measured by HPLC with electrochemical detection (Matthews 1998). […]

[8] = system: patients with cardiac diseases; conditions: up to 8 grams/day, intravenous injection; cited from earlier work

Question: What does the source list for NC1=NCCN1CC(=O)O [cyclocreatine, 1-carboxymethyl-2-iminoimidazolidine]?
Answer: accumulation in different organs ([1]; animals fed e.g. 1% dietary cyclocreatine, mM concentrations): accumulation of cyclocreatine in different organs in mM concentrations; uptake by muscle, heart and brain ([1]; rats receiving dietary 1% cyclocreatine): taken up by muscle, heart and brain; tolerability [2]: well-tolerated; phosphorylation by creatine kinase [3]: phosphorylated efficiently; gross adverse effects [4]: without gross adverse effects; antiviral activity [5]: observed; mortality ([6]; in the presence of antibiotics): without significant mortality; growth compared with control chicks [6]: grew more slowly; nitration of proteins (3-nitrotyrosine) induced by malonate [7]: protective effects; levels of salicylate derivatives 2,3 DHBA and 2,5 DHBA after malonate ([7]; killed 1 hour later): protect against increases

Question: For “N-phosphoryl creatine [creatine phosphate]”, which adverse side effects [8] is on record?
Answer: no adverse side effects
